Assay results reported in US20190040025A1, “INDOLEAMINE 2,3-DIOXYGENASE INHIBITOR, PREPARATION METHOD THEREFOR, AND APPLICATION” (Jiangsu Hansoh Pharmaceutical Group Co., Ltd., priority 2016, published 2019).

Experiments:
[1] = biological target: T1, Human indoleamine 2,3-dioxygenase (IDO) (Homo sapiens, UniProt P14902); assay: Enzymatic test for IDO activity inhibition; format: biochemical; conditions: 40 nM IDO enzyme, 0.2 mM L-tryptophan, 60 minutes at 30° C.
T1 construct: purchased BPS Bioscience Inc
T1 sequence (P14902 whole entry): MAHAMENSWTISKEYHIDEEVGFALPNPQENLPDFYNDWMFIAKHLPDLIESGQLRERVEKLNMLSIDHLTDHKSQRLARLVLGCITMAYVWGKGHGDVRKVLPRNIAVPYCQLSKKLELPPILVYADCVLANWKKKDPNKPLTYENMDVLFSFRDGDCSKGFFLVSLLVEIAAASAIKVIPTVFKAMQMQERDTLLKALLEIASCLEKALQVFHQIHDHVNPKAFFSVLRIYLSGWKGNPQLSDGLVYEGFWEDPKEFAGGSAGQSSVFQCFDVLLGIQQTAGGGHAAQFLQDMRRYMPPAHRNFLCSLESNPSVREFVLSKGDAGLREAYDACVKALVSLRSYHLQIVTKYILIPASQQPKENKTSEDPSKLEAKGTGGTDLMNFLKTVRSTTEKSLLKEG
Method: Human indoleamine 2,3-dioxygenase (IDO) was purchased from BPS Bioscience Inc. The enzymatic reaction of idoleamine 2,3-dioxygenase (IDO) was performed in a 96-well plate with a reaction volume of 20 μL. The reaction conditions were: 40 nM IDO enzyme, 0.2 mM L-tryptophan, 50 mM KPB (pH 6.5) buffer, 20 mM sodium L-L-ascorbate, 10 μM methylene blue, 0.2 mg/mL catalase, different concentrations of compounds containing <1% dimethyl sulfoxide. After reacting for 60 minutes at 30° C., 5 μL of 30% (w/v) trichloroacetic acid (in 50 mM KPB buffer) weres added to each well. The plate was incubated for 30 minutes at 50° C. to hydrolyze N-formyl-kynurenine to kynurenine. 25 μL of 2% (w/v) p-(dimethylamino)benzaldehyde (p-DMBA)/glacial acetic acid solution were added to each well. The absorbance at 490 nm was read on a BioTek Synergy H1 microplate reader […].
The stock solution of the test compound was prepared to 10 mM with dimethyl sulfoxide, diluted with dimethyl sulfoxide to the highest concentration of the test during the experiment, then diluted in 1:3 gradient, and generally diluted to 8 to 10 concentration points. Duplicate wells were set for each concentration point, and one reference compound was included in each experiment. The original data of the absorbance at 490 nm read on a microplate reader were analyzed. The inhibition of IDO enzyme activity was calculated at different concentrations of the test compound. The half-inhibitory concentration IC50 value of the compound was obtained by non-linear fitting analysis of inhibition percentage data by GraphPad Prism software.

[2] = biological target: T2, indoleamine 2,3-dioxygenase (IDO) in HeLa cells (Homo sapiens, UniProt P14902); assay: Cell model test for IDO activity inhibition (interferon γ induced HeLa cells); format: cell-based; conditions: interferon γ 50 ng/mL, 24 hours, read-out: Cytological Test IC50
T2 construct: Interferon γ induced the expression of IDO in HeLa cells; host or cells: HeLa cells induced with interferon γ
T2 sequence (P14902 whole entry): as above
Method: Interferon γ induced the expression of IDO in HeLa cells. This model was used to test the inhibitory activity of compounds on indoleamine 2,3-dioxygenase (IDO). The culture medium of HeLa cells (ATCC) was phenol red-free RPMI-1640 containing 100 μM L-tryptophan. The stock solution of the test compound was prepared to 10 mM with dimethyl sulfoxide, and diluted with dimethyl sulfoxide to the highest concentration of the test during the experiment, then diluted in three-fold gradient, and generally diluted to 8 to 10 concentration points. Duplicate wells were set for each concentration point. The final concentration of DMSO was 0.5%, and internal reference compound was included in each experiment.
The procedure of the experiment was as follows: 20,000 HeLa cells (ATCC) per well were added on a 96-well culture plate and incubated overnight. After 24 hours, interferon γ (final concentration of 50 ng/mL) and different concentrations of the test compound and the internal reference compound were added to the incubated cells. After 24 hours, 140 μL of the supernatant/well was transferred to a new 96-well plate, and 10 μL of 6.1 N trichloroacetic acid was added to each well. The plate was incubated for 30 minutes at 50° C. to hydrolyze N-formyl-kynurenine to kynurenine. The reaction mixture was centrifuged at 2500 rpm for 10 minutes to remove the precipitate, and the supernatant (100 μL) was transferred to another new 96-well plate. 100 μL of 2% (W/V) p-(dimethylamino)benzaldehyde (p-DMBA)/glacial acetic acid solution was added to each well. The absorbance at 490 nm was read on a BioTek Synergy H1 microplate reader […].
The original data of the absorbance at 490 nm read on a microplate reader were analyzed. The inhibition of IDO enzyme activity was calculated at different concentrations of the test compound. The half-inhibitory concentration IC50 value of the compound was obtained by non-linear fitting analysis of inhibition percentage data by GraphPad Prism software.

Compound | IC50 [1] | IC50 [2]
CCS(=O)(CCNc1nonc1/C(=N/O)Nc1ccc(F)c(Br)c1)=NC (stereo not drawn) [Example 17, (Z)—N-(3-bromo-4-fluorophenyl)-N′-hydroxy-4-((2-(N-methylethylsulfonimidoyl)ethyl)amino)-1,2,5-oxadiazole-3-carboximidamide] | 75 nM | 16 nM
Cc1ccc(S(=O)(=O)N=S(C)(=O)NCCNc2nonc2C(=NO)Nc2ccc(F)c(Br)c2)cc1 (stereo not drawn) [Example 13, (Z)—N-(3-bromo-4-fluorophenyl)-N′-hydroxy-4-{[2-({S-methyl-N-[(4-methylphenyl)sulfonyl]sulfonimidoyl}amino)ethyl]amino}-1,2,5-oxadiazole-3-carboximidamide] | 64 nM | 47 nM
CN=S(C)(=O)CCNc1nonc1/C(=N/O)Nc1ccc(F)c(Br)c1 (stereo not drawn) [Example 16, (Z)—N-(3-bromo-4-fluorophenyl)-4-((2-(N,S-dimethylsulfonimidoyl)ethyl)amino)-N′-hydroxy-1,2,5-oxadiazole-3-carboximidamide] | 66 nM | 19 nM
O=C(NO)C(=O)NCCNc1nonc1/C(=N/O)Nc1ccc(F)c(Br)c1 [Example 8, (Z)—N^1-(2-((4-(N-(3-bromo-4-fluorophenyl)-N′-hydroxycarbamimidoyl)-1,2,5-oxadiazol-3-yl)amino)ethyl)-N^2-hydroxyoxalamide] | 76 nM | 33 nM
CNC(=O)C(=O)NCCNc1nonc1/C(=N/O)Nc1ccc(F)c(Br)c1 [Example 2, (Z)—N^1-(2-((4-(N-(3-bromo-4-fluorophenyl)-N′-hydroxycarbamimidoyl)-1,2,5-oxadiazol-3-yl)amino)ethyl)-N^2-methyloxalamide] | 71 nM | 18 nM

Compounds with a lower IC50 [1], results first:

IC50 [1] | IC50 [2] | Compound
56 nM | 20 nM | CCNC(=O)C(=O)NCCNc1nonc1/C(=N/O)Nc1ccc(F)c(Br)c1 [Example 3, (Z)—N^1-(2-((4-(N-(3-bromo-4-fluorophenyl)-N′-hydroxycarbamimidoyl)-1,2,5-oxadiazol-3-yl)amino)ethyl)-N^2-ethyloxalamide]
53 nM | 53 nM | O=C(NCCNc1nonc1/C(=N/O)Nc1ccc(F)c(Br)c1)C(=O)NC1CC1 [Example 7, (Z)—N^1-(2-((4-(N-(3-bromo-4-fluorophenyl)-N′-hydroxycarbamimidoyl)-1,2,5-oxadiazol-3-yl)amino)ethyl)-N^2-cyclopropyloxalamide]
42 nM | 38 nM | NS(=O)(=O)NC1CC(Nc2nonc2/C(=N/O)Nc2ccc(F)c(Br)c2)C1 (stereo not drawn) [Example 11, (Z)—N-(3-bromo-4-fluorophenyl)-N′-hydroxy-4-((3-(sulfamoylamino)cyclobutyl)amino)-1,2,5-oxadiazole-3-carboximidamide]
19 nM | 37 nM | NS(=O)(=O)NC1CCC(Nc2nonc2/C(=N/O)Nc2ccc(F)c(Br)c2)CC1 (stereo not drawn) [Example 10, (Z)—N-(3-bromo-4-fluorophenyl)-N′-hydroxy-4-((4-(sulfamoylamino)cyclohexyl)amino)-1,2,5-oxadiazole-3-carboximidamide]
